From publication PMC10516900 (Communications Biology, 2023)
“And” between values parts separate entries of the source, which are not always exact repeats. Identical values can stand only once.

Legend:
hUSP7CD = biological target: T1, hUSP7CD (Homo sapiens, UniProt Q93009); assay: Ub-AMC enzymatic inhibition assay, hUSP7CD; format: biochemical
T1 construct: Swiss Prot entry: Q93009, residues 208–560; His6 (N); made in house; host or cells: E. coli BL21 (DE3) codon plus RIL
Protocol: (§2) Enzymes and substrates were diluted in the reaction buffer (20 mM HEPES, pH 7.4, 150 mM NaCl, and 5 mM DTT) to a concentration of 5 μM for the substrate and 0.5 μM for the enzymes. […] USP enzymatic activity and inhibition assays were measured at room temperature using the cleavage-sensitive fluorogenic substrate Ub-AMC (Boston Biochem, U-550). […] The AMC fluorescence emission was monitored at 460 nm (excitation at 380 nm) for 30–60 min using a SpectraMax M3 plate reader (Molecular Devices). […] The data were fitted using GraphPad Prism 7 (GraphPad Inc.). Fluorescence intensity was recorded every 45 s for 90 min. Data are presented as the mean ± SD (n = 3).

cUSP47CD^A416NA417H = assay: Ub-AMC enzymatic inhibition assay, cUSP47CD^A416NA417H; format: biochemical, Caenorhabditis elegans; settings: FT671 5 μM, Fig. 5d
Protocol: (§1) Enzymes and substrates were diluted in the reaction buffer (20 mM HEPES, pH 7.4, 150 mM NaCl, and 5 mM DTT) to a concentration of 5 μM for the substrate and 0.5 μM for the enzymes. At the indicated time points following the reaction initiation, 10 μL reaction aliquots were taken and the reaction was stopped by adding SDS sampling buffer and analyzed using SDS-PAGE. Then, the 4–15% gradient gel was stained with Coomassie Brilliant Blue R-250. USP enzymatic activity and inhibition assays were measured at room temperature using the cleavage-sensitive fluorogenic substrate Ub-AMC (Boston Biochem, U-550). The deubiquitination assay was performed following the protocol by Ernst et al.[30]. Briefly, enzyme activity assays were performed in assay buffer in 20 mM HEPES (pH 7.4), 100 mM NaCl, and 5 mM DTT) containing cUSP47CD (in 50 nM), hUSP47CD-UBL12 (in 100 nM) or hUSP7CD (in 100 nM) constructs and serial dilutions of Ub-AMC (final 35 μM). The AMC fluorescence emission was monitored at 460 nm (excitation at 380 nm) for 30–60 min using a SpectraMax M3 plate reader (Molecular Devices). […] The data were fitted using GraphPad Prism 7 (GraphPad Inc.). Fluorescence intensity was recorded every 45 s for 90 min. Data are presented as the mean ± SD (n = 3).

USP7 = settings: cited from earlier work; for potency and specificity for USP7: recently reported USP7 inhibitors
cUSP47CD = cUSP47CD (Caenorhabditis elegans, UniProt Q22240); assay: Ub-AMC enzymatic inhibition assay, cUSP47CD; format: biochemical; set-up: Residual enzymatic activity, cUSP47CD_IC50(p50429): unit not given here
cUSP47CD, sequence (Q22240 entry or part of it): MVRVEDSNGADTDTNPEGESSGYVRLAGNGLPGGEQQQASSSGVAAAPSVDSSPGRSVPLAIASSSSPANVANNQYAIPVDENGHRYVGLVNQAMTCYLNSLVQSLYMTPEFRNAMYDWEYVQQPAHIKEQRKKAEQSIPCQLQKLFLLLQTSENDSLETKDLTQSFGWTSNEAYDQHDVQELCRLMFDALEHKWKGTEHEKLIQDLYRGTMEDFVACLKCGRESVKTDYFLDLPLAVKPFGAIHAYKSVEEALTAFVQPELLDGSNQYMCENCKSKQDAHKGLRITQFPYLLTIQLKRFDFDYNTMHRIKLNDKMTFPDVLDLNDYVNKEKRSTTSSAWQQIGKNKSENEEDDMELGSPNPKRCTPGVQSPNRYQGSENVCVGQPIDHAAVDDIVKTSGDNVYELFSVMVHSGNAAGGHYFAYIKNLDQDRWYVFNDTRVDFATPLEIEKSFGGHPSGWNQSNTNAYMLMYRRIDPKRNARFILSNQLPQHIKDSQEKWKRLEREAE
Protocol: as §1

cUSP47CD^R309NA416NA417H = assay: Ub-AMC enzymatic inhibition assay, cUSP47CD^R309NA416NA417H; format: biochemical, Caenorhabditis elegans; settings: FT671 5 μM, Fig. 5d, compared with the double mutant
Protocol: as §1

hUSP7CD^N460AH461A = biological target: T2, hUSP7CD^N460AH461A (Homo sapiens, UniProt Q93009, H461A/N460A); assay: Ub-AMC enzymatic inhibition assay, hUSP7CD^N460AH461A; format: biochemical; settings: FT671 5 μM, Fig. 5d
T2 construct: Swiss Prot entry: Q93009, residues 208–560; His6 (N); made in house; host or cells: E. coli BL21 (DE3) codon plus RIL
T2 sequence (Q93009 208-560 N460A/H461A): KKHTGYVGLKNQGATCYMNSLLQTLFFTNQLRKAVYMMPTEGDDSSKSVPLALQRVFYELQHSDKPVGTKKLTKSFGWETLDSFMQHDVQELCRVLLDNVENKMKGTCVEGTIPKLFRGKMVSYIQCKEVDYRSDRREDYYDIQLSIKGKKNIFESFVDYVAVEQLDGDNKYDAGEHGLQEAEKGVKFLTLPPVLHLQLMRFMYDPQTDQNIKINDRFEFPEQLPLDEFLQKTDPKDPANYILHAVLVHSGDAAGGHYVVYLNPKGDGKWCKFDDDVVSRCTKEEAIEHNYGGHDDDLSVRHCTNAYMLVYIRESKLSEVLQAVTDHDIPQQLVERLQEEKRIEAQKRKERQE
Protocol: as §2

cUSP47CD^R309N = assay: Ub-AMC enzymatic inhibition assay, cUSP47CD^R309N; format: biochemical, Caenorhabditis elegans; settings: FT671 5 μM, Fig. 5d
Protocol: as §1

[1] = tested on: multiple myeloma xenograft models; settings: in vitro and in vivo multiple myeloma xenograft models; cited from earlier work
USP47 = settings: cited from earlier work
Flag-USP7 = biological target: T3, Flag-USP7 (Homo sapiens, UniProt Q93009); assay: Immunoprecipitation and DUB assay with K48-linked ubiquitin chains, Flag-USP7 from treated HEK293T cells; format: cell-based; settings: HEK293T cells treated for 2 h, immunoprecipitated Flag-USP7, Fig. 2f
T3 construct: expressed in transfected cells; host or cells: HEK293T
T3 sequence (Q93009 whole entry): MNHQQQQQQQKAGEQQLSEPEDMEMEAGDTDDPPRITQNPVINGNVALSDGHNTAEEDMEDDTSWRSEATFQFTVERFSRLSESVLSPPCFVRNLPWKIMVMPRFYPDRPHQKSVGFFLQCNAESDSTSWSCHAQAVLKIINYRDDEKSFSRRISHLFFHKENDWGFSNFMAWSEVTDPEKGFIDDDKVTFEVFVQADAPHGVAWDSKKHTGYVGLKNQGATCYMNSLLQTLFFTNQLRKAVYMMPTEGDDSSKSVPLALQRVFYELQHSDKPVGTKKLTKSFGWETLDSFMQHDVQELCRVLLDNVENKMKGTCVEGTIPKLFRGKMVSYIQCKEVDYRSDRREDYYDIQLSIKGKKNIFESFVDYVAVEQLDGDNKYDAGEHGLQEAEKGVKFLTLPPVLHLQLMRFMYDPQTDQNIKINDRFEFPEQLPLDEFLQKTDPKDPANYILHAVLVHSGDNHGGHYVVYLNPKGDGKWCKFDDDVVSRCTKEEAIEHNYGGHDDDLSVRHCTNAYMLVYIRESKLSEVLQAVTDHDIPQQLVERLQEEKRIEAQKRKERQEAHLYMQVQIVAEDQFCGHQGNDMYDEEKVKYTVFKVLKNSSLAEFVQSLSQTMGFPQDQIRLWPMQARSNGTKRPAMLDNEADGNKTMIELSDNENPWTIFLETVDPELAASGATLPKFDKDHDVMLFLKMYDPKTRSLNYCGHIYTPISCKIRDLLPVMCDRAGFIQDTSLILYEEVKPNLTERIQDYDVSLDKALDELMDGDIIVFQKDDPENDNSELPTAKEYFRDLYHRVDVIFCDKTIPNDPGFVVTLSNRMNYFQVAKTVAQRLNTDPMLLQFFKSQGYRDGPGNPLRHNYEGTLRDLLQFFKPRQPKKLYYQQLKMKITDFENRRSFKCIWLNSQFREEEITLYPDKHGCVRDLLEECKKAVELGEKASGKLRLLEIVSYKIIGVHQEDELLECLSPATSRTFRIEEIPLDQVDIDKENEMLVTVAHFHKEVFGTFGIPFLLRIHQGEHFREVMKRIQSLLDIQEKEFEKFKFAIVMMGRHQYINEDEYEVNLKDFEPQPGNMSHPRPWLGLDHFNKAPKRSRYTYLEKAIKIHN
Protocol: Fig. 2 Biochemical properties of USP47. a Domain structure of USP47 and the constructs used in this study. b HEK293T cells were transfected with USP Flag-tagged mutants. […] The IC50 values were determined in triplicate and fitted to a four-parameter logistic dose-response curve. Data are expressed as means ± SD.
HEK293T cells transfected with pFlag-CMV-2 vector, pFlag-USP7, or pFlag-USP47 were treated with drugs, as indicated, and lysed by protein lysis buffer (20 mM Tris–Cl, 150 mM NaCl, 1 mM EDTA, 1 mM EGTA, 1% Triton X-100, 2.5 mM sodium pyrophosphate, 50 mM NaF, 5 mM β-glycerophosphate, 1 mM Na3VO4, 1x protease inhibitor, pH 7.5). […] Flag affinity gel was washed 5 times with lysis buffer and the supernatant was removed carefully with a syringe after the last wash step. For elution, Flag agarose was incubated with 3× Flag peptide (Sigma Aldrich) in elution buffer (15 μg of Flag peptide in 50 μl of lysis buffer) for 30 min at 4 °C. The supernatants were collected as immunoprecipitates. […] Samples were analyzed by Western blot and detected with the anti-ubiquitin antibody.

T1 sequence (Q93009 208-560): as the sequence (Q93009 208-560 N460A/H461A) above, with A253N, A254H counted along it

In the case of `O=C(C[C@@H](C(F)F)n1ccc(F)n1)N1CCC(O)(Cn2cnc3c(cnn3-c3ccc(F)cc3)c2=O)CC1` [FT671], the “inhibition of USP7 wild type by FT671” value (hUSP7CD; FT671 5 μM, Ub-AMC, Fig. 5d) is listed as “complete inhibition”, the “reduction in the activity of cUSP47CD^A416NA417H with FT671” value (cUSP47CD^A416NA417H) is listed as ~40% and the “potency and specificity for USP7” value (USP7) is listed as “high potency and specificity only for USP7”. For the same compound, the “Enzyme activity cUSP47CD+FT671 relative to cUSP47CD without FT671 (=100)” value (cUSP47CD; FT671 5 μM, Ub-AMC 35 μM, mean and three replicates, 5 µM) was 108.41 and 98.6437 and 106.057, the remaining activity at 5 µM (cUSP47CD; FT671 5 μM, Ub-AMC 35 μM, mean and three replicates, read-out: Enzyme activity cUSP47CD+FT671 relative to cUSP47CD without FT671 (=100)) was 104% and the “inhibition of cUSP47CD wild type by FT671” value (cUSP47CD; FT671 5 μM, Ub-AMC, Fig. 5d) was “no inhibition”. For the same compound, the “inhibition of cUSP47CD^R309NA416NA417H by FT671” value (cUSP47CD^R309NA416NA417H) was “even more inhibition”, the “reduction in the activity of hUSP7CD^N460AH461A in the presence of FT671” value (hUSP7CD^N460AH461A) was ~ 80% and the “change in activity of cUSP47CD^R309N with FT671” value (cUSP47CD^R309N) was “no change in the activity”.

In the case of `CCc1c(-c2ccc(C(=O)NC)nc2)cnc(N)c1-c1ccc(O)cc1` [GNE6776], the “potency and specificity for USP7” value (USP7) is given as “high potency and specificity only for USP7”.

In the case of `CC(=O)c1cc([N+](=O)[O-])c(Sc2cccc(Cl)c2Cl)s1` [P5091, 1-[5-(2,3-dichlorophenylsulfanyl)−4-nitro-2thienl]ethanone], the antitumor efficacy [1] is given as “antitumor efficacy”, the IC50 (USP7; read-out: IC50 USP7) is given as 4.2 µM and the IC50 (USP47) is given as 4.3 µM.

In the case of `CS(=O)(=O)c1ccc(NC(=O)c2cc(C#N)c(Sc3c(Cl)cncc3Cl)s2)cc1` [P50429], the IC50 (hUSP7CD) is reported as 5.3 ± 1 µM, the IC50 (cUSP47CD; Ub-AMC, USP47 50 nM, 10 min at 25 °C, triplicate, mean ± SD) is reported as 1.4 ± 0.2 µM and the “Residual enzymatic activity, cUSP47CD_IC50(p50429)” value (shortened to “Residual enzymatic activity”) (cUSP47CD; inhibitor concentration 0.0244141, three replicates, 0.0244141 µM) is reported as 98.3931 and 102.68. For the same compound, the remaining activity at 0.0244141 µM (cUSP47CD; inhibitor concentration 0.0244141, three replicates, read-out: Residual enzymatic activity, cUSP47CD_IC50(p50429)) was 106%, the “Residual enzymatic activity” value (cUSP47CD; inhibitor concentration 0.0488281, three replicates, 0.0488281 µM) was 94.8604 and 95.1269 and the remaining activity at 0.0488281 µM (cUSP47CD; inhibitor concentration 0.0488281, three replicates, read-out: Residual enzymatic activity, cUSP47CD_IC50(p50429)) was 100%. For the same compound, the “Residual enzymatic activity” value (cUSP47CD; inhibitor concentration 0.0976562, three replicates, 0.0976562 µM) was 90.0141 and 90.4933, the remaining activity at 0.0976562 µM (cUSP47CD; inhibitor concentration 0.0976562, three replicates, read-out: Residual enzymatic activity, cUSP47CD_IC50(p50429)) was 86.3% and the “Residual enzymatic activity” value (cUSP47CD; inhibitor concentration 0.195312, three replicates, 0.195312 µM) was 70.9575 and 84.4737. The remaining activity at 0.195312 µM (cUSP47CD; inhibitor concentration 0.195312, three replicates, read-out: Residual enzymatic activity, cUSP47CD_IC50(p50429)) was 90.3%, the “Residual enzymatic activity” value (cUSP47CD; inhibitor concentration 0.390625, three replicates, 0.390625 µM) was 71.1433 and 81.3617 and the remaining activity at 0.390625 µM (cUSP47CD; inhibitor concentration 0.390625, three replicates, read-out: Residual enzymatic activity, cUSP47CD_IC50(p50429)) was 83.2%. The “Residual enzymatic activity” value (cUSP47CD; inhibitor concentration 0.78125, three replicates, 0.78125 µM) was 64.5756 and 70.9586, the remaining activity at 0.78125 µM (cUSP47CD; inhibitor concentration 0.78125, three replicates, read-out: Residual enzymatic activity, cUSP47CD_IC50(p50429)) was 71.1% and the “Residual enzymatic activity” value (cUSP47CD; inhibitor concentration 1.5625, three replicates, 1.5625 µM) was 47.6458 and 50.9074. The remaining activity at 1.5625 µM (cUSP47CD; inhibitor concentration 1.5625, three replicates, read-out: Residual enzymatic activity, cUSP47CD_IC50(p50429)) was 52.3%, the “Residual enzymatic activity” value (cUSP47CD; inhibitor concentration 3.125, three replicates, 3.125 µM) was 23.3806 and 22.8255 and the remaining activity at 3.125 µM (cUSP47CD; inhibitor concentration 3.125, three replicates, read-out: Residual enzymatic activity, cUSP47CD_IC50(p50429)) was 24.7%. The “Residual enzymatic activity” value (cUSP47CD; inhibitor concentration 6.25, three replicates, 6.25 µM) was 13.3082 and 13.4812, the remaining activity at 6.25 µM (cUSP47CD; inhibitor concentration 6.25, three replicates, read-out: Residual enzymatic activity, cUSP47CD_IC50(p50429)) was 23% and the “Residual enzymatic activity” value (cUSP47CD; inhibitor concentration 12.5, three replicates, 12.5 µM) was 11.6652 and 7.474. The remaining activity at 12.5 µM (cUSP47CD; inhibitor concentration 12.5, three replicates, read-out: Residual enzymatic activity, cUSP47CD_IC50(p50429)) was 11.3%, the “Residual enzymatic activity” value (cUSP47CD; inhibitor concentration 25, three replicates, 25 µM) was 6.001 and 6.389 and the remaining activity at 25 µM (cUSP47CD; inhibitor concentration 25, three replicates, read-out: Residual enzymatic activity, cUSP47CD_IC50(p50429)) was 7.06%. The “Residual enzymatic activity” value (cUSP47CD; inhibitor concentration 50 (0–50 μM series), three replicates, 50 µM) was 4.2047 and -1.497 and -1.461 and the “DUB activity on K48-linked ubiquitin chains” value (Flag-USP7) was “inhibited the DUB activity”.

For `C=C1C(=O)O[C@H]2[C@H]1CC/C(C)=C/CC[C@@]1(C)O[C@@H]21` [Parthenolide], the “inhibition of USP7” value (USP7) is listed as “can also inhibit both DUBs” and the “inhibition of USP47” value (USP47) is listed as “can also inhibit both DUBs”.
